Test results published in ChEMBL document CHEMBL4616599, “Molecular mechanism of C-phycocyanin induced apoptosis in LNCaP cells” (Bioorg Med Chem, 2020).
Activity calls are given as the source filed them.

Legend:
Assay type in all cases: functional, cell-based
LNCaP [1] = assay: Cytotoxicity against human LNCAP cells assessed as reduction in cell viability at 10 uM after 24 hrs by trypan blue dye exclusion assay
LNCaP [2] = assay: Induction of apoptosis in human LNCAP cells assessed as increase in cleaved PARP expression at 500 ug/ml measured after 24 hrs by western blot analysis
LNCaP [3] = assay: Induction of apoptosis in human LNCAP cells assessed as increase in cleaved PARP expression at 10 uM measured after 24 hrs by Western blot analysis
LNCaP [4] = assay: Induction of apoptosis in human LNCAP cells assessed as decrease in uncleaved PARP expression at 10 uM measured after 24 hrs by Western blot analysis
LNCaP [5] = assay: Induction of apoptosis in human LNCAP cells assessed as up regulation of p21 expression at 10 uM measured after 24 hrs by immunoblot analysis
LNCaP [6] = assay: Induction of apoptosis in human LNCAP cells assessed as up regulation of p53 expression at 10 uM measured after 24 hrs by immunoblot analysis

Measured: Activity

CC[C@@]1(O)C(=O)OCc2c1cc1n(c2=O)Cc2cc3c(CN(C)C)c(O)ccc3nc2-1
active: LNCaP [1] | LNCaP [2] | LNCaP [3] | LNCaP [4] | LNCaP [5] | LNCaP [6]
